Reference: patent US4122034A, “Antimicrobial compositions” (Schering Corporation, priority 1975, dated 1978)
In brackets after ≈: the same amount, converted by molar mass.

Key:
Assay type in all cases: cell-based
Bacteroides corrodens = test: In vitro activity against anaerobes in fluid Thioglycollate medium (Table II); settings: Eikenella corrodens
Protocol: (§1) All the tests were carried out and (when necessary) scored under standard conditions. "MIC" means "minimum inhibitory concentration."
(§2) In vitro activity of 2-aminoalkyl-3-phenylindoles of the formula I
(§3) against anaerobes in fluid Thioglycollate medium

Bacteroides fragilis = test: as above
Protocol: as §1, §2, §3

Clostridium septicum = test: as above
Protocol: as §1, §2, §3

Clostridium novyi = test: as above
Protocol: as §1, §2, §3

Peptostreptococcus = test: as above
Protocol: as §1, §2, §3

Clostridium histolyticum = test: as above; settings: Hathewaya histolytica
Protocol: as §1, §2, §3

Salmonella = test: In vitro antibacterial activity, dilution in Mueller Hinton Agar (Table I)
Protocol: as §1
(§4) In vitro Antibacterial Activity of 2-aminoalkyl-3-phenyl-
(§5) indoles of the formula I. Dilution in Mueller Hinton Agar pH 7.4

Proteus rettgeri = test: as above; settings: Providencia rettgeri; 'Proteus rettgeri mirabilis' [sic]; Mueller Hinton Agar pH 7.4
Protocol: as §1, §4, §5

Proteus mirabilis = test: as above; settings: Mueller Hinton Agar pH 7.4
Protocol: as §1, §4, §5

Pseudomonas acruginosa = test: as above
Protocol: as §1, §4, §5

Klebsiella = test: as above
Protocol: as §1, §4, §5

Streptococcus pyogenes = test: as above
Protocol: as §1, §4, §5

Proteus morganii = test: as above; settings: Morganella morganii; strain Valz; Mueller Hinton Agar pH 7.4
Protocol: as §1, §4, §5

Proteus vulgaris = test: as above; settings: strain Napol, Mueller Hinton Agar pH 7.4
Protocol: as §1, §4, §5

Staphylococcus aureus = test: as above; settings: Mueller Hinton Agar pH 7.4
Protocol: as §1, §4, §5

Escherichia coli = test: as above
Protocol: as §1, §4, §5

Enterococcus = test: as above
Protocol: as §1, §4, §5

Trichophyton tonsurans = test: In vitro antifungal activity, dilutions in Sabouraud's Dextrose Broth (Table IV); settings: after 96 hours
Protocol: as §1
(§6) In vitro Antifungal Activity of 2-amioalkyl-3-phenylindoles
(§7) of the formula I against Dermetophytes and Aspergillus.
(§8) Dilutions in Sabouraud's Dextrose Broth.

Trichophyton megninii = test: as above; settings: Trichophyton rubrum; after 96 hours
Protocol: as §1, §6, §7, §8

Trichophyton discoides = test: as above; settings: after 96 hours
Protocol: as §1, §6, §7, §8

Aspergillus sp. No. 3 = test: as above; settings: after 96 hours
Protocol: as §1, §6, §7, §8

Epidermophyton floccosum = test: as above; settings: after 96 hours
Protocol: as §1, §6, §7, §8

Trichophyton ascoides = test: as above; settings: after 96 hours
Protocol: as §1, §6, §7, §8

Microsporum distortum = test: as above; settings: after 96 hours
Protocol: as §1, §6, §7, §8

Trichophyton soudenense = test: as above; settings: after 96 hours
Protocol: as §1, §6, §7, §8

Aspergillus niger 6275 = test: as above; settings: after 96 hours
Protocol: as §1, §6, §7, §8

[1] = system: Trichophyton mentagrophytes; test: as above; settings: 96 h
Protocol: as §1, §6, §7, §8

[2] = system: Trichophyton schoenleinii; test: as above; settings: 96 h
Protocol: as §1, §6, §7, §8

Tricoderm sp. = test: as above; settings: after 96 hours
Protocol: as §1, §6, §7, §8

Trichophyton gallinae = test: as above; settings: after 96 hours
Protocol: as §1, §6, §7, §8

Microsporum nanum = test: as above; settings: Nannizzia nana; after 96 hours
Protocol: as §1, §6, §7, §8

Trichophyton ferrugineum = test: as above; settings: Microsporum ferrugineum; after 96 hours
Protocol: as §1, §6, §7, §8

Trichophyton rubrum = test: as above; settings: 96 h
Protocol: as §1, §6, §7, §8

Trychomonas vaginalis = test: In vitro Anti-Trichomonal activity (Table VII)
Protocol: as §1
In vitro Anti-Trichomonal Activity of some 2-aminoalkyl-3-
phenyl-indenes of formula II.

NCc1[nH]c2cc(Br)c(Cl)cc2c1-c1ccccc1 [D, 2-aminomethyl-6-bromo-5-chloro-3-phenylindole]
MIC (Bacteroides corrodens; 48 hrs): 0.75 µg/mL (≈ 2.23 µM)
MIC (Bacteroides corrodens; 72 hrs): 0.75 µg/mL (≈ 2.23 µM)
MIC (Bacteroides fragilis; 48 hrs): 0.75 µg/mL (≈ 2.23 µM)
MIC (Bacteroides fragilis; 72 hrs): 0.75 µg/mL (≈ 2.23 µM)
MIC (Clostridium septicum; 48 hrs): 0.75 µg/mL (≈ 2.23 µM)
MIC (Clostridium septicum; 72 hrs): 0.75 µg/mL (≈ 2.23 µM)
MIC (Clostridium novyi; 48 hrs): 0.75 µg/mL (≈ 2.23 µM)
MIC (Clostridium novyi; 72 hrs): 0.75 µg/mL (≈ 2.23 µM)
MIC (Peptostreptococcus; 48 hrs): 0.3 µg/mL (≈ 0.894 µM)
MIC (Peptostreptococcus; 72 hrs): 0.3 µg/mL (≈ 0.894 µM)
MIC (Clostridium histolyticum; 48 hrs): 0.3 µg/mL (≈ 0.894 µM)
MIC (Clostridium histolyticum; 72 hrs): 0.3 µg/mL (≈ 0.894 µM)
MIC (Salmonella; TYPHI, pH 7.4, B typhi, Mueller Hinton Agar pH 7.4): 3 µg/mL (≈ 8.94 µM)
MIC (Salmonella; pH 7.4, C1 Oao, Mueller Hinton Agar pH 7.4): 3 µg/mL (≈ 8.94 µM)
MIC (Salmonella; pH 7.4, C2 Cuban, Mueller Hinton Agar pH 7.4): 3 µg/mL (≈ 8.94 µM)
MIC (Salmonella; pH 7.4, C2 Napc, Mueller Hinton Agar pH 7.4): 3 µg/mL (≈ 8.94 µM)
MIC (Salmonella; pH 7.4, Salmonella ent. 1, Mueller Hinton Agar pH 7.4): 3 µg/mL (≈ 8.94 µM)
MIC (Proteus rettgeri): 7.5 µg/mL (≈ 22.3 µM)
MIC (Proteus mirabilis; pH 7.4, strain Hard): 3 µg/mL (≈ 8.94 µM)
MIC (Proteus mirabilis; pH 7.4, strain Peras): 3 µg/mL (≈ 8.94 µM)
MIC (Pseudomonas acruginosa; pH 7.4, strain 130, Mueller Hinton Agar pH 7.4): 17.5 µg/mL (≈ 52.1 µM)
MIC (Pseudomonas acruginosa; pH 7.4, strain 138, Mueller Hinton Agar pH 7.4): 7.5 µg/mL (≈ 22.3 µM)
MIC (Pseudomonas acruginosa; pH 7.4, strain 762, Mueller Hinton Agar pH 7.4): 17.5 µg/mL (≈ 52.1 µM)
MIC (Pseudomonas acruginosa; pH 7.4, strain 8709, Mueller Hinton Agar pH 7.4): 7.5 µg/mL (≈ 22.3 µM)
MIC (Pseudomonas acruginosa; pH 7.4, strain Trav. 1, Mueller Hinton Agar pH 7.4): 7.5 µg/mL (≈ 22.3 µM)
MIC (Klebsiella; pH 7.4, strain 121, Mueller Hinton Agar pH 7.4): 3 µg/mL (≈ 8.94 µM)
MIC (Klebsiella; pH 7.4, strain 3020, Mueller Hinton Agar pH 7.4): 3 µg/mL (≈ 8.94 µM)
MIC (Klebsiella; pH 7.4, strain AD17, Mueller Hinton Agar pH 7.4): 3 µg/mL (≈ 8.94 µM)
MIC (Klebsiella; pH 7.4, strain AD22, Mueller Hinton Agar pH 7.4): 3 µg/mL (≈ 8.94 µM)
MIC (Klebsiella; pH 7.4, strain G3694, Mueller Hinton Agar pH 7.4): 3 µg/mL (≈ 8.94 µM)
MIC (Streptococcus pyogenes; pH 7.4, strain 27, Mueller Hinton Agar pH 7.4): 3 µg/mL (≈ 8.94 µM)
MIC (Streptococcus pyogenes; pH 7.4, strain C, Mueller Hinton Agar pH 7.4): 3 µg/mL (≈ 8.94 µM)
MIC (Streptococcus pyogenes; pH 7.4, strain Cruz, Mueller Hinton Agar pH 7.4): 3 µg/mL (≈ 8.94 µM)
MIC (Proteus morganii): 3 µg/mL (≈ 8.94 µM)
MIC (Proteus vulgaris): 3 µg/mL (≈ 8.94 µM)
MIC (Staphylococcus aureus; 209P, pH 7.4, strain 209P): 3 µg/mL (≈ 8.94 µM)
MIC (Staphylococcus aureus; pH 7.4, strain 59N): 3 µg/mL (≈ 8.94 µM)
MIC (Staphylococcus aureus; pH 7.4, strain Gray): 3 µg/mL (≈ 8.94 µM)
MIC (Staphylococcus aureus; pH 7.4, strain Wood): 3 µg/mL (≈ 8.94 µM)
MIC (Staphylococcus aureus; pH 7.4, strain Zeigler): 3 µg/mL (≈ 8.94 µM)
MIC (Escherichia coli; pH 7.4, strain 777, Mueller Hinton Agar pH 7.4): 3 µg/mL (≈ 8.94 µM)
MIC (Escherichia coli; pH 7.4, strain 1574-1, Mueller Hinton Agar pH 7.4): 3 µg/mL (≈ 8.94 µM)
MIC (Escherichia coli; pH 7.4, strain 4195, Mueller Hinton Agar pH 7.4): 3 µg/mL (≈ 8.94 µM)
MIC (Escherichia coli; pH 7.4, strain 10536, Mueller Hinton Agar pH 7.4): 3 µg/mL (≈ 8.94 µM)
MIC (Escherichia coli; pH 7.4, strain JR66, Mueller Hinton Agar pH 7.4): 3 µg/mL (≈ 8.94 µM)
MIC (Enterococcus; pH 7.4, strain 373, Mueller Hinton Agar pH 7.4): 3 µg/mL (≈ 8.94 µM)
MIC (Enterococcus; pH 7.4, strain 0928/72, Mueller Hinton Agar pH 7.4): 3 µg/mL (≈ 8.94 µM)
MIC (Trichophyton tonsurans): 17.5 µg/mL (≈ 52.1 µM)
MIC (Trichophyton megninii): 3 µg/mL (≈ 8.94 µM)
MIC (Trichophyton discoides): 7.5 µg/mL (≈ 22.3 µM)
MIC (Aspergillus sp. No. 3): 17.5 µg/mL (≈ 52.1 µM)
MIC (Epidermophyton floccosum): 7.5 µg/mL (≈ 22.3 µM)
MIC (Trichophyton ascoides): 7.5 µg/mL (≈ 22.3 µM)
MIC (Microsporum distortum): 3 µg/mL (≈ 8.94 µM)
MIC (Trichophyton soudenense): 3 µg/mL (≈ 8.94 µM)
MIC (Aspergillus niger 6275): 17.5 µg/mL (≈ 52.1 µM)
MIC ([1]; strain A, after 96 hours): 7.5 µg/mL (≈ 22.3 µM)
MIC ([1]; strain B, after 96 hours): 3 µg/mL (≈ 8.94 µM)
MIC ([1]; strain C, after 96 hours): 3 µg/mL (≈ 8.94 µM)
MIC ([1]; strain H377, after 96 hours): 7.5 µg/mL (≈ 22.3 µM)
MIC ([1]; strain Young, after 96 hours): 7.5 µg/mL (≈ 22.3 µM)
MIC ([2]; strain 2, after 96 hours): 7.5 µg/mL (≈ 22.3 µM)
MIC ([2]; strain not given, after 96 hours): 7.5 µg/mL (≈ 22.3 µM)
MIC (Tricoderm sp.): 7.5 µg/mL (≈ 22.3 µM)
MIC (Trichophyton gallinae): 75 µg/mL (≈ 223 µM)
MIC (Microsporum nanum): 3 µg/mL (≈ 8.94 µM)
MIC (Trichophyton ferrugineum): 17.5 µg/mL (≈ 52.1 µM)
MIC (Trichophyton rubrum; strain 3, after 96 hours): 3 µg/mL (≈ 8.94 µM)
MIC (Trichophyton rubrum; strain 360, after 96 hours): 3 µg/mL (≈ 8.94 µM)
MIC (Trichophyton rubrum; strain Blehl, after 96 hours): 7.5 µg/mL (≈ 22.3 µM)
MIC (Trichophyton rubrum; strain Haggerty, after 96 hours): 7.5 µg/mL (≈ 22.3 µM)
IC50 (Trychomonas vaginalis; 50% suppression, read-out: Minimal Level to Produce 50% Suppression): 20 µg/mL (≈ 59.6 µM)
IC90 (Trychomonas vaginalis; 90% suppression, read-out: Minimal Level to Produce 90% Suppression): 38 µg/mL (≈ 113 µM)
